Entries after “also recorded” stand apart in the source; their conditions may differ.
Tests used:
Aβ(1-42) ion channels = molecular target: T1, Aβ(1-42) ion channels (Homo sapiens, UniProt P05067); experiment: Functional ion channel inhibition assay, planar lipid bilayer (Example 7); assay type: biochemical; details: for Inhibition of de-novo Aβ ion channel formation: molar ratio to Aβ 1:1, added at the same time as 37 μM Aβ; for Rank of inhibitory effect on Aβ ion channel activity: repeated experiments
T1 construct: Aβ(1-42) (Biopeptides) was initially dissolved in deionized water at 1 mg/ml (221.5 μM); purchased Biopeptide, Inc.
T1 sequence (P05067 672-713 limits assumed): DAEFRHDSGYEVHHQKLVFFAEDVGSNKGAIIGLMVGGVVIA
Excerpt: Functional Ion Channel Inhibition Assays: A functional assay has been developed to investigate the inhibition of neurotoxic ion channel activity of Aβ peptides in reconstituted membrane bilayers and in aneuronal cell line by small molecules. The assay is based on ultra-sensitive electrophysiological recordings of the ion channel activity of Aβ. This ion channel-activity assay is designed to determine whether small molecules that bind to Aβ fibrils will inhibit ion channel activity. Compounds that inhibit ion channel activity are likely candidates for therapeutics and diagnostic agents for amyloid-associated diseases. This Example presents results that nicotine, tannic acid, and Congo Red are able to inhibit the ion channel activity of Aβ oligomers in planar lipid bilayers.
1. The lipid mixture was made from POPE:POPG (Avanti Polar Lipids) at 25 mg/ml (1:1) in Heptane. The pretreatment lipid solution was POPE:POPG 20 mg/mL in Hexane.
2. The bilayer was formed in classic bilayer cups and chamber (Warner Instruments). This 2-part system consists of a black Delrin chamber and a cup of Delrin. Cups and chambers are designed such that addition of equal volumes to the cup and chamber (cis and trans sides) results in a balanced solution height, minimizing any pressure gradients across the bilayer membrane.
3. The bilayer was formed over a 250 μm hole in a partition separating two Delrin compartments, the so called “painting technique.” First, droplets of pretreatment lipid solution were placed on both sides of the hole, using 100 uL-Hamilton syringe. Once the droplet of hexane evaporates, both chambers (cis and trans) were symmetrically filled with 900 uL of buffer solution, 100 mM KH2PO4/K2HPO4 pH 7.4, at room temperature.
4. When the bilayer set-up was already in place with Ag/AgCl electrodes in Faraday cage (a bilayer workstation which provides critical shielding of electromagnetic interference from outside sources and isolate vibration), the lipid solution (POPE:POPG in Heptane) was painted directly over the hole by using a thin paintbrush. A researcher gently blew underneath the hole by using the Pasteur pipette to thin out the bilayer until the appropriate capacitance was obtained (80-120 pF).
5. A voltage of ±100 mV was applied for at least 10 minutes to test stability of lipid bilayer.
Aβ(1-42) (Biopeptides) was initially dissolved in deionized water at 1 mg/ml (221.5 μM), and stored at −20° C. The stock solution is aliquotted to sufficient amount for each time use (90 uL). After the stable bilayer is constituted, the Aβ(1-42) solution was added to the trans side of the chamber to obtain a final concentration of 37 μM. The solution was mixed well in the chamber under stirring for 5 minutes
Congo Red (Sigma) was dissolved in DI Water to achieve a concentration of 2.5 mg/ml (3.58 mM) as a stock solution. (−) Nicotine Hemasulfate (Sigma) was diluted to 1.89 mM in DI Water. Tannic Acid (Riedel-de Haen) was diluted to 20 mM in DI Water.
The solution of inhibitory molecule was added to cis and trans sides to make a desired final concentration (1:1 molar ratio) at the same time as Aβ.
For Nicotine, the solution was added after observing current activities of Aβ to obtain 1:1, 1:2, 1:3, 1:4 molar ratio.

[1] = Octanol/PBS partition coefficient (log P), experimental; details: for logP: octanol/PBS buffer
Protocol: (§1) 15 μM solutions of small molecule are prepared in 5 mL PBS buffer. 5 mL of octanol is added to each aqueous solution of small molecule and the biphasic layers are mixed by rapid vortexing. The mixture is then centrifuged at 250×g to facilitate the formation of two clear layers. The layers are separated and the absolute concentrations of small molecules in each layer are quantified by measuring the absorbance of the layers at the appropriate nm for each compound. The molar extinction coefficient of the compound in octanol and PBS buffer is determined by comparison to standard calibration curves of known quantities of small molecules dissolved in octanol and PBS buffer. The partition coefficient is expressed as logarithm of the ratio of the concentration in octanol divided by the concentration in PBS (i.e., log P).

Aβ fibrils (anti-Aβ IgG) = Aβ fibrils (anti-Aβ IgG) (Homo sapiens, UniProt P05067); details: for Emax: read-out: % Max Inhib.
Chain of Aβ fibrils (anti-Aβ IgG) (P05067 672-713 limits assumed): as above

[2] = molecular target: T2, Aβ(1-42) ion channel activity (Homo sapiens, UniProt P05067); experiment: Planar lipid bilayer Aβ ion channel assay, Method 1 (POPE:POPG, pre-incubated Aβ); assay type: biochemical; details: for membrane lasts: Method 1, incubated at 4:1 with Aβ, average of experiments
T2 construct: Aβ(1-42) (Biopeptides) was initially dissolved in deionized water at 1 mg/ml (221.5 μM); purchased Biopeptide, Inc.
T2 sequence (P05067 672-713 limits assumed): as above
Protocol: […] The Aβ sample was pre-incubated at RT for 12-18 hours. The molecules of interest can be pre-incubated with Aβ sample at various concentrations.
Bilayer set-up and recording system: Planar lipid bilayer was formed by the so-called “painting technique” over a 250-μm aperture on a Delrin cup (Warner Instruments) separating two compartments (cis and trans) of a bilayer setup. A lipid mixture of 1-palmitoyl-2-oleoyl phosphatidyletanolamine (POPE): palmitoyl-oleyl-phosphatidylglycerol (POPG) (Avanti Polar Lipids), 1:1 at 25 mg mL-1 in heptane was applied to the aperture which is pre-treated with 2 μL of the same lipid mixture (20 mg mL^−1) in hexane on each side. The recording buffer in cis compartment is 100 mM K2HPO4/KH2PO4 pH 7.4, while in the trans compartment a buffer with pre-incubated Aβ overnight was used.

[3] = molecular target: Aβ fibrils (binding of anti-Aβ IgG clone 6E10) (Homo sapiens, UniProt P05067); experiment: ELISA-based assay: inhibition of anti-Aβ IgG (clone 6E10) binding to Aβ fibrils; details: control experiments, FIG. 2 panel c
Chain of Aβ fibrils (binding of anti-Aβ IgG clone 6E10) (P05067 672-713 limits assumed): as above

[4] = molecular target: T3, Aβ(1-40) ion channel activity (Homo sapiens, UniProt P05067); experiment: Planar lipid bilayer Aβ ion channel assay, Method 2 (POPE:DOPS, Aβ proteoliposomes); assay type: biochemical; details: for Small molecule concentration at which no ion channel activity is observed: Method 2, added after observing events
T3 construct: Aβ(1-40) (Biopeptide, Inc.) powder was initially solubilized lyophilized in DiH2O at 1 mg/mL; purchased Biopeptide, Inc
T3 sequence (P05067 672-711 limits assumed): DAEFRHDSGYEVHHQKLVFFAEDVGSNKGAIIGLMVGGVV
Protocol: Method 2: Planar lipid bilayer was formed by the so-called “painting technique” over a 250-μm aperture on a Delrin cup (Warner Instruments) separating two compartments (cis and trans) of a bilayer setup. A lipid mixture of 1-palmitoyl-2-oleoyl phosphatidyletanolamine (POPE) (Avanti Polar Lipids) and Dioleoylphosphatidylserine (DOPS) (Avanti Polar Lipids), 1:1 at 10 mg mL-1 in heptane was applied on the aperture which is pre-treated with 2 μL of the same lipid mixture in hexane on each side. Both compartments were filled symmetrically with 800 μL of 70 mM KCl, […]. A glass pipette with a smooth bent tip was used to blow air bubble under the aperture to thin out the droplet of lipid to obtain a planar lipid bilayer (with capacitance >80 pF). Membrane stability was determined by applying ±100 mV for 10 minutes and monitoring a constant current baseline without instabilities in current. The capacitance of the membrane was monitored throughout the experiment.
Monomerization of Aβ: Aβ powder (Biopeptide, Inc.) was initially solubilized in Hexafluoroisopropanol (HFIP) at 1 mM for 21 hours in a glass vial, with 3 times of vortexing throughout the incubation period. The solution was diluted with cold nanopure water (2:1 H2O:HFIP) vortexed, fractionated in desire amounts, and immediately frozon in a CO2/acetone bath. Each fraction was covered with parafilm that was punctured twice to allow solvent vapors to escape. The fractions were lyophilized for 2 days to obtain monomerized Aβ.
Preparation of Aβ proteoliposomes: Aβ(1-40) (Biopeptide, Inc.) powder was initially solubilized lyophilized in DiH2O at 1 mg/mL and stored in −80° C. before use. 20 μL of DOPS was evaporated in CHCl3 (10 mg mL^−1) under vacuum and formed liposomes using hydration method. After obtaining a thin film of lipid, 30 μL of 1M Potassium Aspartate pH 7.2 was added, followed by 5 minutes of bath sonication. The liposome suspension was then mixed with 20 μL of Aβ (1-40) solution (1 mg/mL) and sonicated for 5 minutes.
In order to promote fusion of Aβ proteoliposomes into the bilayer, an ionic gradient of 370 mM KCl was used on the cis side (the side of proteoliposome addition) and 70 mM KCl on the trans side of the bilayer setup. 10-20 μL of the Aβ proteoliposome solution was added to the cis compartment and stirred vigorously for 5-10 minutes. The molecules of interest can be tested by addition to the chamber after observing events.

Protocol for physchem: as §1

CN1CCCC1c1cccnc1 (single isomer, unassigned; (-)) [(−)-Nicotine]
Time to almost complete disruption of preformed ion channels (Aβ(1-42) ion channels; 4-fold molar excess with respect to Aβ): ≤ 10 min
Disruption of Aβ ion channel activity on addition at increasing concentration (Aβ(1-42) ion channels; added after observing Aβ current, 1:1 to 1:4 molar ratio, 37 μM Aβ): concentration-dependent disruption of Aβ ion channel activity
Disruption of preformed Aβ ion channels (Aβ(1-42) ion channels; molar ratio nicotine to Aβ 4:1): disrupted preformed Aβ channels almost completely
Inhibition of de-novo Aβ ion channel formation (Aβ(1-42) ion channels): sufficient to inhibit the de-novo formation of Aβ ion channels; also recorded: did not result in ion channel activity during the entire test period (90 min)
Rank of inhibitory effect on Aβ ion channel activity (Aβ(1-42) ion channels): strongest inhibitory effect
LogP expt'l ([1]; octanol/PBS): 0.20 ± 0.01
% Max Inhib. (Aβ fibrils (anti-Aβ IgG); anti-Aβ IgG-Aβ fibril binding): 84%
Conc at Max Inhib. (Aβ fibrils (anti-Aβ IgG); anti-Aβ IgG-Aβ fibril binding): 1,000 mM
membrane lasts / membrane stability ([2]; Method 1, incubated at 2:1): (incubated at 2:1), unstable membrane
Observe no ion channel activity in (experiments out of total) ([2]; Method 1, incubated at 4:1): Observe no ion channel activity in 4 out of 4
membrane lasts [2]: (incubated at 4:1), membrane lasts ~70 minutes

O=S(=O)([O-])c1ccc(O)c2ccccc12.[Na+] [1-naphthol-4-sulfonate]
Inhibition of the interaction between the IgGs and Aβ fibrils (control compound) [3]: No inhibition

c1cncc(C2CCCN2)c1 (stereo not shown) [Compound 7, Nornicotine]
logP [1]: -0.93 ± 0.04
Conc at Max Inhib. (Aβ fibrils (anti-Aβ IgG); anti-Aβ IgG-Aβ fibril binding): 700 mM
Emax (Aβ fibrils (anti-Aβ IgG)): 98%

CN1CCCC1c1cncc(Br)c1 (stereo not shown) [Compound 8, 5-Bromonicotine]
logP (physchem): 2.1 ± 0.3
Conc at Max Inhib. (Aβ fibrils (anti-Aβ IgG); anti-Aβ IgG-Aβ fibril binding): 700 mM
Emax (Aβ fibrils (anti-Aβ IgG)): 83%

OCCOCCOCCOCCN1CCCC1c1cccnc1 (stereo not shown) [Compound 10, 2-(2-(2-(2-(2-(pyridin-3yl)pyrrolidin-1-yl)ethoxy)ethoxy)ethoxy)-ethanol]
logP [1]: -0.41 ± 0.05
Conc at Max Inhib. (Aβ fibrils (anti-Aβ IgG); anti-Aβ IgG-Aβ fibril binding): 100 mM
Emax (Aβ fibrils (anti-Aβ IgG)): 81%

CN1CCC[C@H]1COC(=O)c1cccnc1 [Compound 13, (s)-1-Methylpyrrolidine-2-methyl nicotinate]
logP [1]: -0.5 ± 0.02
Conc at Max Inhib. (Aβ fibrils (anti-Aβ IgG); anti-Aβ IgG-Aβ fibril binding): 50 mM
Emax (Aβ fibrils (anti-Aβ IgG)): 54%

CN1CCC[C@H]1COC(=O)c1cncc(Br)c1 [Compound 14]
Conc at Max Inhib. (Aβ fibrils (anti-Aβ IgG); anti-Aβ IgG-Aβ fibril binding): 50 mM
Emax (Aβ fibrils (anti-Aβ IgG)): 68%

CN1CCCC1COC(=O)c1ccccn1 (stereo not shown) [Compound 15, (s)-1-Methylpyrrolidine-2-methyl picolinate]
logP [1]: 0.69 ± 0.08
Conc at Max Inhib. (Aβ fibrils (anti-Aβ IgG); anti-Aβ IgG-Aβ fibril binding): 50 mM
Emax (Aβ fibrils (anti-Aβ IgG)): 51%

Nc1c(/N=N/c2ccc(-c3ccc(/N=N/c4cc(S(=O)(=O)O)c5ccccc5c4N)cc3)cc2)cc(S(=O)(=O)O)c2ccccc12 [Congo Red]
Rank of inhibitory effect on Aβ ion channel activity (Aβ(1-42) ion channels): then by Congo Red

COc1cc(/C=C/C(=O)CC(=O)/C=C/c2ccc(O)c(OC)c2)ccc1O [Curcumin]
Observe no ion channel activity in (experiments out of total) ([2]; Method 1, incubated at 2:1): Observe no ion channel activity in 3 out of 6
membrane lasts / membrane stability ([2]; Method 1, incubated at 2:1): (incubated at 2:1), membrane lasts ~50 minutes

Cl.NCCc1ccc(O)c(O)c1 [Dopamine HCl]
Observe no ion channel activity in (experiments out of total) ([2]; Method 1, incubated at 4:1): Observe no ion channel activity in 3 out of 4
membrane lasts [2]: (incubated at 4:1), membrane lasts ~70 minutes

NC[C@H](O)c1ccc(O)c(O)c1.O.O=C(O)C(O)C(O)C(=O)O [L-(−)-norepinephrine (+)-bitartrate salt monohydrate]
Small molecule concentration at which no ion channel activity is observed [4]: Observe no ion channel activity at 50 μM small

N[C@@H](Cc1ccc(O)c(O)c1)C(=O)O [L-DOPA]
Membrane observation ([4]; Method 2, 50 μM small molecule): molecule, membrane broke
Small molecule concentration at which no ion channel activity is observed [4]: Observe no ion channel activity at 50 μM small

CNCCc1ccc(O)c(O)c1.Cl [N-methyl dopamine hydrochloride]
Small molecule concentration at which no ion channel activity is observed [4]: Observe no ion channel activity at 450 μM small

O=C([O-])c1ccccc1O.[Na+] [Salicylic Acid sodium salt]
Observe no ion channel activity in (experiments out of total) ([2]; Method 1, incubated at 4:1): Observe no ion channel activity in 3 out of 3
membrane lasts [2]: (incubated at 4:1), membrane lasts ~45 minutes

O=C(OC[C@H]1O[C@@H](OC(=O)c2cc(O)c(O)c(OC(=O)c3cc(O)c(O)c(O)c3)c2)[C@H](OC(=O)c2cc(O)c(O)c(OC(=O)c3cc(O)c(O)c(O)c3)c2)[C@@H](OC(=O)c2cc(O)c(O)c(OC(=O)c3cc(O)c(O)c(O)c3)c2)[C@@H]1OC(=O)c1cc(O)c(O)c(OC(=O)c2cc(O)c(O)c(O)c2)c1)c1cc(O)c(O)c(OC(=O)c2cc(O)c(O)c(O)c2)c1 [Tannic Acid]
Inhibition of de-novo Aβ ion channel formation (Aβ(1-42) ion channels): inhibited ion channel activity of Aβ
Observe no ion channel activity in (experiments out of total) ([2]; Method 1, incubated at 4:1): Observe no ion channel activity in 3 out of 5
membrane lasts [2]: (incubated at 4:1), membrane lasts ~75 minutes

Source: patent US20100260671A1, “COMPOUNDS AND METHODS FOR THE DIAGNOSIS AND TREATMENT OF AMYLOID ASSOCIATED DISEASES” (THE REGENTS OF THE UNIVERSITY OF CALIFORNIA, priority 2007, published 2010)
